Test results: patent US20200268762A1, “7-SUBSTITUTED SULFONIMIDOYLPURINONE COMPOUNDS AND DERIVATIVES FOR THE TREATMENT AND PROPHYLAXIS OF LIVER CANCER” (Hoffmann-La Roche Inc., priority 2019, published 2020)
pEC50: −log10 of the molar value. Values after ≈ are worked out from the molar mass of the structure shown. Like-named read-outs stand apart in the source and are kept apart here.

Tests used:
[1] = LYSA solubility study; type: physicochemical; details: for LYSA of Active Forms: 0.05 M phosphate buffer pH 6.5; for solubility thermodynamic: 0.05 M phosphate buffer, pH 6.5, aqueous buffer, thermodynamic from solid
Experimental: LYSA study is used to determine the aqueous solubility of tested compounds. Samples were prepared in duplicate from 10 mM DMSO stock solution. After evaporation of DMSO with a centrifugal vacuum evaporator, the compounds were dissolved in 0.05 M phosphate buffer (pH 6.5), stirred for one hour and shaken for two hours. After one night, the solutions were filtered using a microtiter filter plate. Then the filtrate and its 1/10 dilution were analyzed by HPLC-UV. […] The results were in μg/mL. In case the percentage of sample measured in solution after evaporation divided by the calculated maximum of sample amount was bigger than 80%, the solubility was reported as bigger than this value.

[2] = system: cell lines originating from hepatocellular carcinoma and cholangiocarcinoma; assay: Direct treatment of tumor cell lines, cell counts by nuclei imaging; type: cell-based; details: 27 μM down to 270 pM, 72, 120 and 148 hours, relative to DMSO control
Experimental: Cell lines derived from hepatocellular carcinoma and cholangiocarcinoma (EGI1 and OZ) were maintained and tested in the following media: Huh7 and EGI1 were cultured in DMEM 4.5 g/L glucose (Gibco, Cat #31966-021), 10% FCS (GIBCO, Cat #10500-064 Lot 07G3690K), 2 mM L-glutamine (Thermo Fischer, Cat #25030081), 1 mM sodium pyruvate (GIBCO Cat #11360-039). Hep3B and HepG2 were cultivated in Eagles MEM+Earle's BSS (PAN, Cat # P04-08510), 10% FCS, 2 mM L-glutamine, 0.1 mM NEAA (PAN Cat # P08-32100) and 1 mM sodium pyruvate. JHH1, JHH5, JHH6 and OZ were cultivated in Williams'E (PAN Cat # P04-29050), 10% FCS and 2 mM L-glutamine. JHH2 was cultivated using Williams'E, 10% FCS and 2 mM L-glutamine. HLE was cultivated in DMEM 4.5 g/L glucose, 10% FCS and 2 mM L-glutamine. HLF was cultivated in DMEM 4.5 g/L glucose, 5% FCS, 0.1 mM NEAA and 2 mM L-glutamine. JHH4 was cultivated in Eagles MEM+Earle's BSS, 10% FCS and 2 mM L-glutamine. SkHep1 was cultivated in Eagles MEM+Earle's BSS, 10% FCS, 2 mM L-glutamine, 0.1 mM NEAA and 1 mM sodium pyruvate. SNU449 was cultivated using RPMI 1640 (PAN Cat # P04-18047) 10% FCS and 2 mM L-glutamine. […]
Tumor cell counts were determined using Perkin Elmer Operetta Imaging System and Harmony Software by counting nuclei stained for 20 minutes in full media using Hoechst33342 dye (2 μg/ml, Sigma Cat # B2261). […]

[3] = target: T1, human TLR7 (Homo sapiens, UniProt Q9NYK1); assay: HEK293-Blue-hTLR-7 cells assay (SEAP reporter); type: cell-based; details: for pEC50: SEAP reporter, 20 hrs
T1 sequence (Q9NYK1 27-1049): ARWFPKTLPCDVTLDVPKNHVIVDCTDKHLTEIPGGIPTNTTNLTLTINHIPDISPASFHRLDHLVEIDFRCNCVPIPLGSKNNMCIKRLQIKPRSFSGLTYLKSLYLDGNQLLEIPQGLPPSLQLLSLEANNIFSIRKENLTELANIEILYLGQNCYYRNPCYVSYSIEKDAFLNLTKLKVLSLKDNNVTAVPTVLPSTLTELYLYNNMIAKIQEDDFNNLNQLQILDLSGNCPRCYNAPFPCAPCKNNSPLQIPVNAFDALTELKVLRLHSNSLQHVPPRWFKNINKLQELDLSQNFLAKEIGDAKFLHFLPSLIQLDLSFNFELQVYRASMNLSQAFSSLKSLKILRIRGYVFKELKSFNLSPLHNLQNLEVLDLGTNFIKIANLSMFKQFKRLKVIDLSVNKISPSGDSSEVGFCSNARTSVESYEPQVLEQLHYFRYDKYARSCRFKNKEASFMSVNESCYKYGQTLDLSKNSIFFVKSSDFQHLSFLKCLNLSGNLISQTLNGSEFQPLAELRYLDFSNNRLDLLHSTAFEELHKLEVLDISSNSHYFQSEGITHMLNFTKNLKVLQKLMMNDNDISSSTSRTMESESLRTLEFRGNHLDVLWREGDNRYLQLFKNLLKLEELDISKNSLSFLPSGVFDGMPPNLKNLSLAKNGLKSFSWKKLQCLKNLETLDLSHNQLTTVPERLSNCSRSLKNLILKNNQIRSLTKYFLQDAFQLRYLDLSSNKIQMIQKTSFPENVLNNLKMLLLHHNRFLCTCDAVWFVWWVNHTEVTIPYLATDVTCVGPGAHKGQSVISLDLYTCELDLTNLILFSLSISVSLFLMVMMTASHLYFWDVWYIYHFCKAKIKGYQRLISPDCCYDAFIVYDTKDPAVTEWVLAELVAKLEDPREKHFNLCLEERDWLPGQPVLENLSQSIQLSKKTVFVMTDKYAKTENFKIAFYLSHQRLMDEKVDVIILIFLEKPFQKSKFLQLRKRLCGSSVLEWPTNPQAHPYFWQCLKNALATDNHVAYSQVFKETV
Excerpt: HEK293-Blue-hTLR-7 cells assay: A stable HEK293-Blue-hTLR-7 cell line was purchased from InvivoGen (Cat. #: hkb-htlr7, San Diego, Calif., USA). These cells were designed for studying the stimulation of human TLR7 by monitoring the activation of NF-κB. A SEAP (secreted embryonic alkaline phosphatase) reporter gene was placed under the control of the IFN-β minimal promoter fused to five NF-κB and AP-1-binding sites. The SEAP was induced by activating NF-κB and AP-1 via stimulating HEK-Blue hTLR7 cells with TLR7 ligands. Therefore the reporter expression was regulated by the NF-κB promoter upon stimulation of human TLR7 for 20 hrs. The cell culture supernatant SEAP reporter activity was determined using QUANTI-Blue™ kit (Cat. #: rep-qbl, Invivogen, San Diego, Ca, USA) at a wavelength of 640 nm, a detection medium that turns purple or blue in the presence of alkaline phosphatase. […] Then 20 μL of the supernatant from each well was incubated with 180 μL Quanti-blue substrate solution at 37° C. for 2 hrs and the absorbance was read at 620-655 nm using a spectrophotometer. The signalling pathway that TLR7 activation leads to downstream NF-κB activation has been widely accepted, and therefore similar reporter assay was also widely used for evaluating TLR7 agonist (Tsuneyasu Kaisho and Takashi Tanaka, Trends in Immunology, Volume 29, Issue 7, July 2008, […]; Hiroaki Hemmi et al, Nature Immunology 3, 196-200 (2002)). The Compounds and Examples of the present invention were tested in HEK293-hTLR-7 assay for their TLR7 agonism activity as described herein and results are listed in Table 1. […] The calculated ratio of EC50(prodrug)/EC50(active form) were within the range from 32 to about 7600.

[4] = system: immune cell infiltrate in iAST tumor; assay: Leukocyte infiltrate of iAST tumors by flow cytometry; type: in vivo, mouse; details: day 12 after treatment start
Experimental: Tumors from iAST mice were treated as described in FIG. 1. […] For flow cytometry, tumors were excised and single cell suspensions obtained by mechanical processing and enzymatic digestion (DNAse 0.01%, Collagenase IV 1 mg/ml). Staining procedures started with Fc receptor blocking using 2.4G2 antibody clone (1:200 dilution, BD Bioscience), and the following antibodies (clones) were used to analyzed leukocyte infiltrate: CD45-FITC (30-F11, BioLegend) and CD11b-BUV737 (M1/70, BD Bioscience). Samples were acquired using a LSR Fortessa machine (BD Bioscience) and analyzed by FlowJo version 10 (Treestar).

[5] = system: iAST mouse model of hepatocellular carcinoma; assay: iAST mouse model of hepatocellular carcinoma, tumor burden; details: iAST mice, Sorafenib 90 mg/kg daily
Experimental: Per group n=10 were analyzed by One-way ANOVA and Tukey correction shown as individual dots with means±SEM using GraphPad Prism software version 6.

[6] = corresponding active form, read-out: HEK293-hTLR-7 EC50 (Active form)

For `CCCS(=N)(=O)c1nc(N)c2[nH]c(=O)n(Cc3ccccc3)c2n1` (single isomer, unassigned) [Compound 1e-A, 6-amino-9-benzyl-2-(propylsulfonimidoyl)-7H-purin-8-one], the “LYSA of Active Forms” value [1] was 56 µg/mL.
Work on `CCCS(=N)(=O)c1nc(N)c2[nH]c(=O)n(Cc3ccccc3)c2n1` (single isomer, unassigned) [Compound 1e-B, 6-amino-9-benzyl-2-(propylsulfonimidoyl)-7H-purin-8-one] yielded a solubility thermodynamic ([1]; read-out: LYSA of Active Forms) of 50 µg/mL (≈ 144 µM).
In the case of `CCCS(=N)(=O)c1nc(N)c2[nH]c(=O)n(Cc3ccc(C)cc3)c2n1` (single isomer, unassigned) [Compound 36g-A, 6-Amino-2-(propylsulfonimidoyl)-9-(p-tolylmethyl)-7H-purin-8-one], the solubility thermodynamic ([1]; read-out: LYSA of Active Forms) was 6 µg/mL (≈ 16.6 µM).
For `CCCS(=N)(=O)c1nc(N)c2[nH]c(=O)n(Cc3ccc(C)cc3)c2n1` (single isomer, unassigned) [Compound 36g-B, 6-Amino-2-(propylsulfonimidoyl)-9-(p-tolylmethyl)-7H-purin-8-one], the “LYSA of Active Forms” value [1] was 11 µg/mL.
In the case of `CC[S@@](=N)(=O)c1nc(N)c2[nH]c(=O)n(Cc3ccc(Cl)cc3)c2n1` (single isomer, unassigned) [Compound 41c-B, 6-amino-9-[(4-chlorophenyl)methyl]-2-(ethylsulfonimidoyl)-7H-purin-8-one], the “tumor cell proliferation upon direct treatment” value [2] was “None of the cell lines tested showed a significant increase in proliferation” and the “tumor cell proliferation upon direct treatment” value ([2]; listed as compound 41c-B) was “does not induce enhanced tumor cell proliferation”.
`CC[S@@](=N)(=O)c1nc(N)c2[nH]c(=O)n(Cc3ccc(Br)cc3)c2n1` (single isomer, unassigned) [Compound 47e-A, 6-Amino-9-[(4-bromophenyl)methyl]-2-(ethylsulfonimidoyl)-7H-purin-8-one] showed a pEC50 [3, 6] of 7.68.
Molecule `CC[S@@](=N)(=O)c1nc(N)c2[nH]c(=O)n(Cc3ccc(Br)cc3)c2n1` (single isomer, unassigned) [Compound 47e-B, 6-Amino-9-[(4-bromophenyl)methyl]-2-(ethylsulfonimidoyl)-7H-purin-8-one] has a pEC50 [3, 6] of 7.60.
`CCCN(C)C(=O)n1c(=O)n(Cc2ccc(Br)cc2)c2nc([S@](=N)(=O)CC)nc(N)c21` (single isomer, unassigned) [Example 47-A] showed a pEC50 ([3]; prodrug, read-out: HEK293-hTLR-7 EC50 (Prodrug)) of 4.96 and a solubility thermodynamic ([1]; read-out: LYSA of Prodrugs) of 154 µg/mL (≈ 302 µM).
In the case of `CCC[S@](=N)(=O)c1nc(N)c2c(n1)n(Cc1ccc(C)cc1)c(=O)n2C(=O)N(C)CCOC` [Example 38-A, 6-Amino-N-(2-methoxyethyl)-N-methyl-8-oxo-2-[S(S)-propylsulfonimidoyl]-9-(p-tolylmethyl)purine-7-carboxamide], the “Ratio (EC50(prodrug)/EC50(active form))” value [3] was 1378.9.
With `CNC(=O)c1cc(Oc2ccc(NC(=O)Nc3ccc(Cl)c(C(F)(F)F)c3)cc2)ccn1` [Sorafenib, 4-{4-[3-(4-Chlor-3-trifluormethylphenyl)ureido]phenoxy}pyridin-2-carbonsäuremethylamid] the “overall lymphoid and myeloid composition of the tumors” value [4] was “changes were clearly driven by Sorafenib”, the “efficacy in monotherapy (total liver and tumor weights)” value [5] was “highly effective” and the “Examination of the liver for superficial tumor nodules (tumor nodule free)” value ([5]; day 12 after treatment start, 41-A 10 mg/kg once a week oral) was 0/10 tumor nodule free.
